Experimental data from patent publication US12357615B2, “Compositions for the treatment of brain tumors” (Kembi Therapeutics Pty Ltd, priority 2018, dated 2025).

Assays:
[1] = test system: T98G xenograft; conditions: implanted DHT pellets versus no DHT, female C.B-17 SCID mice
Protocol: T98G cancer cells were implanted into the flanks female C.B-17 SCID mice with or without implanted DHT pellets. Tumor size was measured over time. The results were plotted using Graphpad Prism.

[2] = test system: T98G AR positive cell line; assay: Clonogenic survival after radiation with seviteronel, T98G; type: cell-based; conditions: 5 μM seviteronel 24 hours before radiation 0-8 Gy
Description: (§1) The term “surviving fraction” as used herein is the fraction of cells that retain their reproductive integrity after radiation normalized to the fraction of cells seeded and the colonies formed in the absence of irradiation
(§2) The term “enhancement ratio” as used herein is the ratio of the Dmid (the area under the radiation survival curve, which reflects the effectiveness of radiation) in the absence of seviteronel divided by the Dmid in the presence of seviteronel.
(§3) AR positive or negative GBM cell lines were treated with seviteronel (2.5-5 uM) for 24 hours prior to treatment with a single fraction of ionizing radiation (0-8 Gy) and then replated at clonal density. After 10-14 days, cells were stained with crystal violet and colonies were counted and normalized to conditions without radiation. Enhancement ratios were calculated by dividing the Dmid (the area under the clonogenic-survival curve) of control conditions by the Dmid of the seviteronel-treated cells.

[3] = test system: T98G xenograft; assay: Mouse T98G xenograft model, seviteronel and radiation therapy; type: in vivo
Protocol: T98G cancer cells were implanted into the flanks of DHT-bearing female C.B-17 SCID mice. After tumors reached approximately 100 mm3 in size, tumors were randomized into control, seviteronel alone (75 mg/kg for 30 days), radiation alone (2 Gy×6 fractions), or combined radiation and seviteronel treatment groups. Tumor size was measured over time and time to tumor doubling was estimated using the Kaplan-Meyer method. The results were plotted using Graphpad Prism.

[4] = test system: 8MGBA AR negative glioblastoma multiforme cell line; assay: GBM tumor cell line inhibition assay (colony formation), 8MGBA; type: cell-based; conditions: AR negative GBM cells
Protocol: (§4) The term “percent colony formation” as used herein is the number of colonies after treatment with seviteronel and normalized to the number of colonies formed in the absence of seviteronel.
(§5) AR positive and AR negative GBM cells were plated at clonal density and 1-2 days later were treated with the test compounds at the indicated concentrations. After 10-12 days, the plates were stained with crystal violet. The number of colonies were then counted and normalized to the number of colonies formed in the absence of the test compounds. The results were plotted using Graphpad Prism.

[5] = test system: AM38 AR negative cell line; assay: Clonogenic survival after radiation with seviteronel, AM38; type: cell-based; conditions: seviteronel 2.5-5 uM 24 hours before radiation 0-8 Gy
Description: as §1, §2, §3

[6] = test system: 8MGBA AR negative cell line; assay: Clonogenic survival after radiation with seviteronel, 8MGBA; type: cell-based; conditions: seviteronel 2.5-5 uM 24 hours before radiation 0-8 Gy
Description: as §1, §2, §3

[7] = test system: AM38 AR negative glioblastoma multiforme cell line; assay: GBM tumor cell line inhibition assay (colony formation), AM38; type: cell-based; conditions: AM38, AR negative GBM cells
Protocol: as §4, §5

[8] = test system: T98G AR positive glioblastoma multiforme cell line; assay: GBM tumor cell line inhibition assay (colony formation), T98G; type: cell-based; conditions: Homo sapiens; T98 (T98G), AR positive GBM cells, 10-12 days; read-out: GI50 (growth inhibition, colony formation)
Protocol: as §4, §5

[9] = test system: LN18 AR positive cell line; assay: Clonogenic survival after radiation with seviteronel, LN18; type: cell-based; conditions: 2.5 μM seviteronel 24 hours before radiation 0-8 Gy
Description: as §1, §2, §3

SMILES	tumor volume over time [1]	enhancement ratio (Dmid without / with seviteronel) [2]	tumor volume increase over 35 days ([3]; seviteronel 75 mg/kg days 1-30 plus radiation therapy 2 Gy x 6 fractions days 2-7)	mice with doubling in tumor volume after 30 days ([3]; seviteronel 75 mg/kg plus radiation therapy 2 Gy x 6 fractions)	tumor volume increase over 35 days ([3]; seviteronel alone, 75 mg/kg for 30 days, untreated approximately 5 fold)	time to tumor doubling ([3]; seviteronel alone, 75 mg/kg for 30 days, untreated within 15 days) [days]	effect on growth [4]	enhancement ratio (Dmid without / with seviteronel) [5]	enhancement ratio (Dmid without / with seviteronel) [6]	effect on growth [7]	GI50 [8] [µM]	enhancement ratio (Dmid without / with seviteronel) [9]
C[C@]12CCC(=O)C[C@@H]1CC[C@@H]1[C@@H]2CC[C@]2(C)[C@@H](O)CC[C@@H]12 [DHT, Dihydrotestosterone]	increased more rapidly											
CC(C)[C@](O)(c1ccc2cc(OC(F)F)c(OC(F)F)cc2c1)c1c[nH]nn1 [seviteronel]		1.32	approximately 50%	none	2-3 fold	≤ 30	little to no effect	1.03	1.0	little to no effect	4	1.5
